Measured values published in publication PMC10255569, “Discovery of Peptidic Ligands against the SARS-CoV-2 Spike Protein and Their Use in the Development of a Highly Sensitive Personal Use Colorimetric COVID-19 Biosensor” (ACS Sensors, 2023).
Non-standard residues stand in square brackets, D forms with d. Residues, ends and D or L forms follow the SMILES beside them. *: point of attachment. Biotin = O=C1N[C@H]2[C@H](CS[C@H]2CCCCC(=O)*)N1; Phe(3,5-F2) = N[C@@H](Cc1cc(F)cc(F)c1)C(=O)O; hCit = NC(=O)NCCCC[C@H](N)C(=O)O; Aad = N[C@@H](CCCC(=O)O)C(=O)O; dPhg = N[C@@H](C(=O)O)c1ccccc1; Nva = CCC[C@H](N)C(=O)O; AEEA = NCCOCCOCC(=O)O; Ac3c = NC1(C(=O)O)CC1

Test system: SARS-CoV-2 spike protein active trimer
Type: binding

SMILES | binding to the S-protein active trimer (in words) | Kd [nM] | binding affinity, times higher than CoV6-2 [times] | binding affinity, times stronger than the 13-mer reference peptide [times]
COc1ccc(C[C@H](NC(=O)[C@H](N)Cc2c[nH]cn2)C(=O)N[C@@H](CCCNC(=N)N)C(=O)N[C@@H](C(=O)N[C@H](CCC(=O)O)C(=O)N[C@H](Cc2c[nH]cn2)C(=O)N[C@H](CCSC)C(=O)N[C@@H](CC(C)C)C(=O)NCCOCCOCC(=O)NCCOCCOCC(=O)N[C@@H](CCCCNC(=O)CCCC[C@@H]2SC[C@@H]3NC(=O)N[C@@H]32)C(N)=O)c2ccccc2)cc1 [L9-1] (H-[dH]Y(Me)R[dPhg][dE][dH][dM]L[AEEA][AEEA]K(Biotin)-NH2) | bind reasonably well | – | – | –
CCC[C@H](NC(=O)[C@H](CCCCNC(N)=O)NC(=O)[C@H](CCCNC(=N)N)NC(=O)[C@H](Cc1ccc(OC)cc1)NC(=O)[C@H](N)Cc1c[nH]cn1)C(=O)N[C@@H](CCCNC(=N)N)C(=O)N[C@@H](Cc1cc(F)cc(F)c1)C(=O)N[C@@H](Cc1ccccc1)C(=O)N[C@@H](CCCC(=O)O)C(=O)NCCOCCOCC(=O)NCCOCCOCC(=O)N[C@@H](CCCCNC(=O)CCCC[C@@H]1SC[C@@H]2NC(=O)N[C@@H]21)C(N)=O [L10-2] (H-[dH]Y(Me)R[hCit][Nva]R[Phe(3,5-F2)]F[Aad][AEEA][AEEA]K(Biotin)-NH2) | bind reasonably well | 25 | 8 | ~3
CCC[C@H](NC(=O)[C@H](CCC(N)=O)NC(=O)[C@@H](N)Cc1cc(F)cc(F)c1)C(=O)N[C@@H](CCCNC(=N)N)C(=O)N[C@H](CC(N)=O)C(=O)N[C@@H](CCC)C(=O)N[C@H](CC(N)=O)C(=O)NC1(C(=O)NCCOCCOCC(=O)NCCOCCOCC(=O)N[C@@H](CCCCNC(=O)CCCC[C@@H]2SC[C@@H]3NC(=O)N[C@@H]32)C(N)=O)CC1 [L10-3] (H-[Phe(3,5-F2)]Q[Nva]R[dN][Nva][dN][Ac3c][AEEA][AEEA]K(Biotin)-NH2) | bind reasonably well | – | – | –
CCC[C@H](NC(=O)[C@H](CCCCNC(N)=O)NC(=O)[C@H](Cc1ccc(OC)cc1)NC(=O)[C@H](N)Cc1c[nH]cn1)C(=O)N[C@@H](CCCNC(=N)N)C(=O)N[C@@H](Cc1cc(F)cc(F)c1)C(=O)N[C@@H](Cc1ccccc1)C(=O)N[C@@H](CCCC(=O)O)C(=O)NCCOCCOCC(=O)NCCOCCOCC(=O)N[C@@H](CCCCNC(=O)CCCC[C@@H]1SC[C@@H]2NC(=O)N[C@@H]21)C(N)=O [L10-4] (H-[dH]Y(Me)[hCit][Nva]R[Phe(3,5-F2)]F[Aad][AEEA][AEEA]K(Biotin)-NH2) | bind reasonably well | – | – | –
CC(C)C[C@H](NC(=O)CNC(=O)[C@H](Cc1ccccc1)NC(=O)[C@@H](NC(=O)[C@@H](N)[C@@H](C)O)C(C)C)C(=O)N[C@@H](CC(N)=O)C(=O)N[C@H](C(=O)N[C@@H](Cc1c[nH]c2ccccc12)C(=O)N[C@@H](CCCCN)C(=O)N[C@@H](CCCNC(=N)N)C(=O)N[C@@H](Cc1ccc(O)cc1)C(=O)N[C@@H](CO)C(=O)N[C@@H](CCCCN)C(=O)NCCOCCOCC(=O)NCCOCCOCC(=O)N[C@@H](CCCCNC(=O)CCCC[C@@H]1SC[C@@H]2NC(=O)N[C@@H]21)C(N)=O)C(C)C [Reference Peptide, reference compound] (H-TVFGLNVWKRYSK[AEEA][AEEA]K(Biotin)-NH2) | – | 79 | – | –
